Results as given in US8822449B2, “Substituted aminoindanes and analogs thereof, and the pharmaceutical use thereof” (Sanofi, priority 2008, dated 2014).

Target: T1, sodium-proton exchanger of subtype 3 (NHE3) (Homo sapiens, UniProt P48764)
T1 construct: expressed in transfected cells
T1 sequence (P48764 26-834): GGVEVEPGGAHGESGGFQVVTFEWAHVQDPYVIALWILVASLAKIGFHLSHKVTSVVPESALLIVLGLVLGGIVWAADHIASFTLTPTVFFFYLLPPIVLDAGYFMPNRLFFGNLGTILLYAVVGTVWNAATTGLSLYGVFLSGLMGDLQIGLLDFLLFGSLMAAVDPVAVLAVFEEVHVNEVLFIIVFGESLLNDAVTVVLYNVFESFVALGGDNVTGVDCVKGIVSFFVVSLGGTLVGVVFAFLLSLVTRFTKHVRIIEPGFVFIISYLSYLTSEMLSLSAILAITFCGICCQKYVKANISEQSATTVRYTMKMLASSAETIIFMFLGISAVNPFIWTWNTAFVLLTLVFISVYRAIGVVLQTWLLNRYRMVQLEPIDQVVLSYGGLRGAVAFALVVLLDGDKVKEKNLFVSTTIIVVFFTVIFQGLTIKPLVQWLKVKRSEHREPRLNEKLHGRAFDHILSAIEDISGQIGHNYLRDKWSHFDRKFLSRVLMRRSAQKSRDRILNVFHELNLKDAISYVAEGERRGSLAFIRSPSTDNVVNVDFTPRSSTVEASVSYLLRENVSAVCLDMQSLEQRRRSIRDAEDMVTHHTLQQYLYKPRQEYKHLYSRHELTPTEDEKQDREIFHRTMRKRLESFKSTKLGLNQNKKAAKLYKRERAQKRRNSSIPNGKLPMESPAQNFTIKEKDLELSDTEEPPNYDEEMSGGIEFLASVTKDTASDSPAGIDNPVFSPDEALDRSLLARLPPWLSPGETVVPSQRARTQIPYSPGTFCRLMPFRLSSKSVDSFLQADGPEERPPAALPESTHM
Experiment: Recovery of intracellular pH (pHi) after acidification in LAP1 cells stably expressing NHE3 (BCECF fluorescence, FLIPR)
Assay type: cell-based
Settings: LAP1 cells stably expressing NHE3; pH recovery after acidification; range 1 is % inhibition at 10 μM; read-out: Activity range (inhibitory effect on NHE3)

Compound	IC50 [µM]	inhibition at 10 µM [%]
CC(=O)Nc1ccc(OC2c3ccccc3CC2N2CCCC2)cc1 (racemic) [Example 666, N-[4-(rac-trans-(1,2)-2-pyrrolidin-1-ylindan-1-yloxy)phenyl]acetamide]	1 to 10	
Cn1ccn(-c2ccc(F)c(O[C@H]3c4cc(Cl)cc(F)c4C[C@@H]3N3CC[C@@H](O)C3)c2)c1=O [Example 318, 1-{3-[(1S,2S)-6-chloro-4-fluoro-2-((R)-3-hydroxypyrrolidin-1-yl)indan-1-yloxy]-4-fluorophenyl}-3-methyl-1,3-dihydroimidazol-2-one]	< 1	
CS(=O)(=O)c1ccc(O[C@@H]2c3cc(F)cc(Cl)c3C[C@H]2N2CCC[C@@H](N)C2)cc1 (racemic) [Example 91, (R)-1-[rac-trans-(1,2)-4-chloro-6-fluoro-1-(4-methanesulfonylphenoxy)indan-2-yl]piperidin-3-ylamine]	< 1	
Cc1nnc(C)n1-c1ccc(O[C@H]2c3cc(Cl)cc(Cl)c3C[C@@H]2N2CCCN(C)CC2)c(F)c1 [Example 346, 1-{trans-(1S,2S)-4,6-dichloro-1-[4-(3,5-dimethyl-[1,2,4]triazol-4-yl)-2-fluorophenoxy]indan-2-yl}-4-methyl-[1,4]diazepane]	< 1	
N[C@H]1CCCN([C@H]2CCc3ccccc3[C@@H]2Oc2ccccc2OC(F)(F)F)C1 (racemic) [Example 159, (S)-1-[rac-trans-(1,2)-1-(2-trifluoromethoxyphenoxy)-1,2,3,4-tetrahydronaphthalen-2-yl]piperidin-3-ylamine]		20 to 50
Cc1ccc(O[C@@H]2c3ccccc3C[C@H]2N2C[C@H]3CNC[C@H]3C2)c(Br)c1 (racemic) [Example 10, 2-[rac-trans-(1,2)-1-(2-bromo-4-methylphenoxy)indan-2-yl]octahydropyrrolo[3,4-c]pyrrole]	1 to 10	
Cc1cc(O[C@@H]2c3ccccc3C[C@H]2N2CCC(CN)C2)cc(C)c1C#N (mixture of isomers) [Example 539, 4-[rac-trans-(1,2)-2-(3-aminomethylpyrrolidin-1-yl)indan-1-yloxy]-2,6-dimethylbenzonitrile]	1 to 10	
CS(=O)(=O)c1ccc(O[C@H]2c3cc(Cl)cc(Cl)c3C[C@@H]2N2CC[C@@H](CO)C2)cc1 [Example 227, {(R)-1-[trans-(1S,2S)-4,6-dichloro-1-(4-methanesulfonylphenoxy)indan-2-yl]pyrrolidin-3-yl}methanol]	1 to 10	
CC(=O)Nc1cccc(O[C@H]2c3cc(F)ccc3C[C@@H]2N2CCCC2)c1 (racemic) [Example 661, N-[3-(rac-trans-(1,2)-6-fluoro-2-pyrrolidin-1-ylindan-1-yloxy)phenyl]acetamide]	< 1	
CS(=O)(=O)c1ccccc1O[C@H]1c2ccccc2CC[C@@H]1N1CCOCC1 (racemic) [Example 506, 4-[rac-trans-(1,2)-1-(2-methanesulfonylphenoxy)-1,2,3,4-tetrahydronaphthalen-2-yl]morpholine]		20 to 50
O=C1CCC(=O)N1c1ccc(O[C@H]2c3cc(Cl)cc(Cl)c3C[C@@H]2N2CC[C@@H](O)C2)cc1 [Example 334, 1-{4-[trans-(1S,2S)-4,6-dichloro-2-((R)-3-hydroxypyrrolidin-1-yl)indan-1-yloxy]phenyl}pyrrolidine-2,5-dione]	< 1	
CC(=O)Nc1cccc(OC2c3ccccc3CC2N(C)C)c1 (racemic) [Example 638, N-[3-(rac-trans-(1,2)-2-dimethylaminoindan-1-yloxy)phenyl]acetamide]	1 to 10	
CS(=O)(=O)c1cccc(O[C@H]2c3ccccc3C[C@@H]2N2CCCC2)c1 (racemic) [Example 269, 1-[rac-trans-(1,2)-1-(3-methanesulfonylphenoxy)indan-2-yl]pyrrolidine]		20 to 50
Cc1nnc(C)n1-c1ccc(O[C@H]2c3cc(Cl)cc(Cl)c3C[C@@H]2N2CC[C@@H](O)C2)c(Cl)c1 [Example 122, (R)-1-{trans-(1S,2S)-4,6-dichloro-1-[2-chloro-4-(3,5-dimethyl-[1,2,4]triazol-4-yl)phenoxy]indan-2-yl}pyrrolidin-3-ol]	< 1	
N[C@@H]1CCCN([C@H]2CCc3ccccc3[C@@H]2Oc2ccc(F)cc2-c2cc[nH]n2)C1 (racemic) [Example 120, (R)-1-{rac-trans-(1,2)-1-[4-fluoro-2-(1H-pyrazol-3-yl)phenoxy]-1,2,3,4-tetrahydronaphthalen-2-yl}piperidin-3-ylamine]	< 1	
N[C@@H]1CCCN([C@H]2CCc3ccccc3[C@@H]2Oc2ccccc2N2CCOCC2)C1 (racemic) [Example 48, (R)-1-[rac-trans-(1,2)-1-(2-morpholin-4-ylphenoxy)-1,2,3,4-tetrahydronaphthalen-2-yl]piperidin-3-ylamine]		20 to 50

Compound	IC50 [µM]	inhibition at 10 µM [%]
N#Cc1ccc(O[C@@H]2c3ccccc3C[C@H]2N2C[C@H]3CNC[C@H]3C2)cc1F (racemic) [Example 397, 2-fluoro-4-[rac-trans-(1,2)-2-(hexahydropyrrolo[3,4-c]pyrrol-2-yl)indan-1-yloxy]benzonitrile]	1 to 10	
N#Cc1ccc(O[C@H]2c3ccccc3CC[C@@H]2N2CCC[C@@H](N)C2)cc1F (racemic) [Example 510, 4-[rac-trans-(1,2)-2-((R)-3-aminopiperidin-1-yl)-1,2,3,4-tetrahydronaphthalen-1-yloxy]-2-fluorobenzonitrile]	< 1	
CCNS(=O)(=O)c1ccc(O[C@@H]2c3ccccc3C[C@H]2N2CCCC2)cc1 (racemic) [Example 700, N-ethyl-4-(rac-trans-(1,2)-2-pyrrolidin-1-ylindan-1-yloxy)benzenesulfonamide]	< 1	
NS(=O)(=O)c1ccc(O[C@H]2c3ccccc3C[C@@H]2CN2CCCCC2)c(F)c1 (racemic) [Example 450, 3-fluoro-4-(2-piperidin-1-ylmethylindan-1-yloxy)benzenesulfonamide]		20 to 50
Cc1nc2cc(O[C@H]3c4cc(Cl)cc(Cl)c4C[C@@H]3N3CCNCC3)ccc2s1 (racemic) [Example 572, 5-(rac-trans-(1,2)-4,6-dichloro-2-piperazin-1-ylindan-1-yloxy)-2-methylbenzothiazole]	1 to 10	
Cc1nnc(C)n1-c1ccc(O[C@H]2c3cc(Cl)cc(Cl)c3C[C@@H]2N2CCCC2)cc1 [Example 500, 4-[4-(trans-(1S,2S)-4,6-dichloro-2-pyrrolidin-1-ylindan-1-yloxy)phenyl]-3,5-dimethyl-4H-[1,2,4]triazole]	< 1	
O[C@@H]1CCN([C@H]2Cc3c(Cl)cc(Cl)cc3[C@@H]2Oc2ccc(-n3ccnc3)cc2)C1 [Example 728, (R)-1-[trans-(1S,2S)-4,6-Dichloro-1-(4-imidazol-1-yl-phenoxy)-indan-2-yl]-pyrrolidin-3-ol]	1 to 10	
N[C@@H]1CCCN([C@H]2Cc3c(Cl)cc(Cl)cc3[C@@H]2Oc2ccc(F)c3cccnc23)C1 [Example 27, (R)-1-[(1S,2S)-4,6-dichloro-1-(5-fluoroquinolin-8-yloxy)indan-2-yl]piperidin-3-ylamine]	< 1	
CS(=O)(=O)c1ccc(O[C@H]2c3cc(F)cc(F)c3C[C@@H]2N2CC[C@@H](O)C2)cc1 [Example 28, (R)-1-[(1S,2S)-4,6-difluoro-1-(4-methanesulfonylphenoxy)indan-2-yl]pyrrolidin-3-ol]	1 to 10	
CC(=O)Nc1cccc(OC2c3ccccc3CC2N2CCCC2)c1 (racemic) [Example 641, N-[3-(rac-trans-(1,2)-2-pyrrolidin-1-ylindan-1-yloxy)phenyl]acetamide]	< 1	
CN(CCO)[C@H]1Cc2c(Cl)cc(Cl)cc2[C@@H]1Oc1ccc(S(C)(=O)=O)cc1 [Example 702, 2-{[trans-(1S,2S)-4,6-Dichloro-1-(4-methanesulfonyl-phenoxy)-indan-2-yl]-methyl-amino}-ethanol]	< 1	
CC(=O)Nc1cccc(O[C@@H]2c3ccccc3C[C@H]2N2CCC(CN)C2)c1 (mixture of isomers) [Example 686, N-{3-[rac-trans-(1,2)-2-(3-aminomethylpyrrolidin-1-yl)indan-1-yloxy]phenyl}acetamide]	1 to 10	
NC(=O)Nc1cccc(O[C@@H]2c3ccccc3C[C@H]2N2CCC[C@@H](N)C2)c1 (racemic) [Example 231, {3-[rac-trans-(1,2)-2-((R)-3-aminopiperidin-1-yl)indan-1-yloxy]phenyl}urea]	< 1	
O=C1OCCN1c1ccc(Cl)c(O[C@H]2c3cc(Cl)cc(F)c3C[C@@H]2N2CC[C@@H](O)C2)c1 [Example 439, 3-{4-chloro-3-[(1S,2S)-6-chloro-4-fluoro-2-((R)-3-hydroxypyrrolidin-1-yl)indan-1-yloxy]phenyl}oxazolidin-2-one]	< 1	
COc1cccc(OC)c1O[C@H]1c2ccccc2CC[C@@H]1N1CCC[C@@H](N)C1 (racemic) [Example 34, (R)-1-[rac-trans-(1,2)-1-(2,6-dimethoxyphenoxy)-1,2,3,4-tetrahydronaphthalen-2-yl]piperidin-3-ylamine]		20 to 50
